Assay results from patent EP4813993A1, “COMPOUND, PREPARATION METHOD THEREFOR, AND USE THEREOF” (Sichuan Kelun Pharmaceutical Research Institute Co., Ltd., priority 2023, dated 2025).

The compounds below were run against T1, Nav1.8 channels (Homo sapiens, UniProt Q9Y5Y9) (assay: Manual patch-clamp, current of stably overexpressed Nav1.8 channels (resting state voltage program)). Settings: concentration of 1 nM, read-out: Inhibition rate %.
T1 construct: expressed in transfected cells
Format: cell-based
Description: Experimental Example 1: Effects of test substances on current of stably overexpressed Nav1.8 channels monitored via manual patch-clamp technique
Test compounds were dissolved in dimethyl sulfoxide (DMSO).
The extracellular fluid was as follows: 140 mM NaCl, 3.5 mM KCl, 1 mM MgCl2•6H2O, 2 mM CaCl2•2H2O, 10 mM D-Glucose, 10 mM HEPES, 1.25 mM NaH2PO4•2H2O; the pH was adjusted to 7.4 with NaOH. The intracellular fluid was as follows: 50 mM CsCl, 10 mM NaCl, 10 mM HEPES, 60 mM CsF, 20 mM EGTA; the pH was adjusted to 7.2 with CsOH.
2. Experimental materials and instruments
• 1) patch-clamp amplifier: EPC 10 (HEKA) • 2) micromanipulator: MP225 (Sutter Instrument) • 3) inverted microscope: MF53 (Mshot) • 4) micropipette puller: P97 (Sutter Instrument) • 5) capillary glass tube: BF150-86-10 (Sutter Instrument)
3. Experimental procedures
• 1) After the compounds were prepared into solutions with specified concentrations, the solutions were sequentially added to the pipeline of the drug delivery system and labeled. • 2) The cell climbing coverslip was placed in the recording chamber, the appropriate cells were selected under the inverted microscope, and the position of the drug delivery tip was adjusted. • 3) A capillary glass tube was pulled into a suitable recording electrode using the micropipette puller, and then the electrode filled with the intracellular fluid was mounted in the microelectrode holder. The micromanipulator was adjusted under the inverted microscope to allow the recording electrode to contact the cell, and negative pressure was applied to the electrode to form a high-resistance seal. At this time, fast capacitance compensation was performed, and then the application of negative pressure was continued to break the cell membrane, forming a whole-cell recording mode. Finally, slow capacitance compensation was performed, and related parameters were recorded. • 4) After the cell current stabilized, administration was started. Each concentration of the drug was applied for five minutes or until the current stabilized before proceeding to monitor the next concentration. The drug solutions were administered via gravity-fed delivery, flowing through the recording chamber to act on the cells in an ascending order of concentration (from low to high). A peristaltic pump was employed for solution exchange in the recording process.
4 Test voltage program (resting state) and results
After the formation of the whole-cell seal, the cell voltage was clamped at -120 mV, followed by depolarization to 0 mV using a square-wave pulse with a duration of 50 ms to elicit Nav1.8 currents. This procedure was repeated every 20 s to monitor the maximum current induced by the square wave. After the current stabilized, the test compounds were administered. Once the response stabilized, the intensity of the current block was calculated.

T1 sequence (Q9Y5Y9 whole entry): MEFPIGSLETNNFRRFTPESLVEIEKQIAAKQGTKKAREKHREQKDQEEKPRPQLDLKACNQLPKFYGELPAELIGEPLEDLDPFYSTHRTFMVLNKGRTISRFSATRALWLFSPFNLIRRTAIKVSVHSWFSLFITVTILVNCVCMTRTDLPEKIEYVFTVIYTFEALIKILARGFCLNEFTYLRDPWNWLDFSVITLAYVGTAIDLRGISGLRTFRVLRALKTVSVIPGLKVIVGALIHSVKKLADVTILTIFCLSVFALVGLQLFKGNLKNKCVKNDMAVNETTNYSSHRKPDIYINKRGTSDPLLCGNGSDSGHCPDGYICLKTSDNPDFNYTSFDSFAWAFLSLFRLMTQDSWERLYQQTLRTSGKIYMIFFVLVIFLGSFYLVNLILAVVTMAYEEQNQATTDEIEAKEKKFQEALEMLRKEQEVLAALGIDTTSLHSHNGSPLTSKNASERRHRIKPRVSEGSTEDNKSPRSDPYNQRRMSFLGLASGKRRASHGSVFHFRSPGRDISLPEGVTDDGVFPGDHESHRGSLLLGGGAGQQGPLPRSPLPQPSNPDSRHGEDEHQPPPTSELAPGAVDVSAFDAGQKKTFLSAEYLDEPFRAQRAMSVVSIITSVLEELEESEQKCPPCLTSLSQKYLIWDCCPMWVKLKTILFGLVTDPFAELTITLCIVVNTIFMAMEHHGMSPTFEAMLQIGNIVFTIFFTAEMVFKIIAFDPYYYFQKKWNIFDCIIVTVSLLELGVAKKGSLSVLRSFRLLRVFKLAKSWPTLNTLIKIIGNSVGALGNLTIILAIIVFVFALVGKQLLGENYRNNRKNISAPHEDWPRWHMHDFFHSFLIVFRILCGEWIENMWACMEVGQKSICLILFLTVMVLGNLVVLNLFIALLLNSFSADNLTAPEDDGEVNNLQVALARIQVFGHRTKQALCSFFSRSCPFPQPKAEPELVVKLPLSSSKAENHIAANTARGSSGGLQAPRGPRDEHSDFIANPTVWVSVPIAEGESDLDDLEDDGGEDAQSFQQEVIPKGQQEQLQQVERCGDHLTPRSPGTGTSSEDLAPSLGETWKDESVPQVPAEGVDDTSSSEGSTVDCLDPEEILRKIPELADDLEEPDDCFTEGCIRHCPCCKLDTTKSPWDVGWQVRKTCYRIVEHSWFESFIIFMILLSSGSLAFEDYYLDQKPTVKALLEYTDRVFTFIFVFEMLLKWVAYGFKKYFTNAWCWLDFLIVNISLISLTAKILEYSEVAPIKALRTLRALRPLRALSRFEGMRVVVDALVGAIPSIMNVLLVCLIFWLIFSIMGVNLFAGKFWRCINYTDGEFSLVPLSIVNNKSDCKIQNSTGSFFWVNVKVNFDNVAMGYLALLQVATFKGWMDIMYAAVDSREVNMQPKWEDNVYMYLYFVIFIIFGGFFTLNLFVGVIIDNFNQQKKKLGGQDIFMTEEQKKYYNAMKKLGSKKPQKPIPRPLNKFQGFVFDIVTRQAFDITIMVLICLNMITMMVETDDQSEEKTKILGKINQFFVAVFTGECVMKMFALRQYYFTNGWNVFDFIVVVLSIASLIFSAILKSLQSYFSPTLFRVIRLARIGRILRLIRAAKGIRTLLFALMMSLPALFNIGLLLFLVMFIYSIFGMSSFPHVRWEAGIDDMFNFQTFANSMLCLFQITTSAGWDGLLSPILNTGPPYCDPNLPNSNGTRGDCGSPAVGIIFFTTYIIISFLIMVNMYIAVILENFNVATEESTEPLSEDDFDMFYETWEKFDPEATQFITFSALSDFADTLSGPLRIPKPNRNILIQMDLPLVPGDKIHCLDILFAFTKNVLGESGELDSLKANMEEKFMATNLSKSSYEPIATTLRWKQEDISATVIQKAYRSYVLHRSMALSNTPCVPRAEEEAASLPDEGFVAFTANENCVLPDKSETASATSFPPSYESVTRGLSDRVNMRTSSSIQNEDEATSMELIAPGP

inhibition at 0.001 µM | Compound
48.6% | COc1c([C@@H]2C[C@](C)(C(F)(F)F)S[C@H]2C(=O)Nc2ccc(B3OC(C)(C)C(C)(C)O3)c(F)c2)ccc(F)c1F [Compound 229-A, (2R,3S,5R)-3-(3,4-difluoro-2-methoxyphenyl)-N-(3-fluoro-4-(4,4,5,5-tetramethyl-1,3,2-dioxaborolan-2-yl)phenyl)-5-methyl-5-(trifluoromethyl)tetrahydrothiophene-2-carboxamide]
78.4% | COc1c(C2CC(C)(C(F)(F)F)SC2C(=O)Nc2ccc([S+](C)[O-])nc2)ccc(F)c1F (stereo not drawn) [Compound 232, 3-(3,4-difluoro-2-methoxyphenyl)-5-methyl-N-(6-(methylsulfinyl)pyridin-3-yl)-5-(trifluoromethyl)tetrahydrothiophene-2-carboxamide]
85.5% | COc1c([C@@H]2C[C@](C)(C(F)(F)F)S[C@H]2C(=O)Nc2ccc([S+](C)[O-])nc2)ccc(F)c1F (stereo partly drawn) [Compound 238-A, (2R,3S,5R)-3-(3,4-difluoro-2-methoxyphenyl)-5-methyl-N-(6-(methylsulfinyl)pyridin-3-yl)-5-(trifluoromethyl)tetrahydrothiophene-2-carboxamide]
87.8% | COc1c([C@@H]2C[C@](C)(C(F)(F)F)S[C@H]2C(=O)Nc2ccnc(C(F)F)c2)ccc(F)c1F [Compound 244-A, (2R,3S,5R)-3-(3,4-difluoro-2-methoxyphenyl)-N-(2-(difluoromethyl)pyridin-4-yl)-5-methyl-5-(trifluoromethyl)tetrahydrothiophene-2-carboxamide]
72.6% | COc1c([C@@H]2C[C@](C)(C(F)(F)F)S[C@H]2C(=O)Nc2ccc3nonc3c2)ccc(F)c1F [Compound 248-A, (2R,3S,5R)-N-(benzo[c][1,2,5]oxadiazol-5-yl)-3-(3,4-difluoro-2-methoxyphenyl)-5-methyl-5-(trifluoromethyl)tetrahydrothiophene-2-carboxamide]
81.6% | COc1c([C@@H]2C[C@](C)(C(F)(F)F)S[C@H]2C(=O)Nc2ccc(N)c(S(N)(=O)=O)c2)ccc(F)c1F [Compound 249-A, (2R,3S,5R)-N-(4-amino-3-sulfamoylphenyl)-3-(3,4-difluoro-2-methoxyphenyl)-5-methyl-5-(trifluoromethyl)tetrahydrothiophene-2-carboxamide]
62.7% | C=CC(=O)Nc1cc(NC(=O)[C@@H]2S[C@@](C)(C(F)(F)F)C[C@H]2c2ccc(F)c(F)c2OC)ccn1 [Compound 252-A, (2R,3S,5R)-N-(2-acrylamidopyridin-4-yl)-3-(3,4-difluoro-2-methoxyphenyl)-5-methyl-5-(trifluoromethyl)tetrahydrothiophene-2-carboxamide]
68.6% | CNC(=O)c1cc(NC(=O)[C@@H]2S[C@@](C)(C(F)(F)F)C[C@H]2c2ccc(F)c(F)c2OC)ccn1 [Compound 253-A, 4-((2R,3S,5R)-3-(3,4-difluoro-2-methoxyphenyl)-5-methyl-5-(trifluoromethyl)tetrahydrothiophene-2-carboxamido)-N-methylpicolinamide]
76.8% | COc1c([C@@H]2C[C@](C)(C(F)(F)F)S[C@H]2C(=O)Nc2ccc(F)c(CO)c2)ccc(F)c1F [Compound 254-A, (2R,3S,5R)-3-(3,4-difluoro-2-methoxyphenyl)-N-(4-fluoro-3-(hydroxymethyl)phenyl)-5-methyl-5-(trifluoromethyl)tetrahydrothiophene-2-carboxamide]

The next lines start with the compound.

Compound | inhibition at 0.001 µM
COc1c(C2CC(C)(C(F)(F)F)SC2C(=O)Nc2ccc3nnnn3c2)ccc(F)c1F (stereo not drawn) [Compound 202, 3-(3,4-difluoro-2-methoxyphenyl)-5-methyl-N-(tetrazolo[1,5-a]pyridin-6-yl)-5-(trifluoromethyl)tetrahydrothiophene-2-carboxamide] | 81%
COc1c(C2CC(C)(C(F)(F)F)SC2C(=O)Nc2ccn3nnnc3c2)ccc(F)c1F (stereo not drawn) [Compound 203, 3-(3,4-difluoro-2-methoxyphenyl)-5-methyl-N-(tetrazolo[1,5-a]pyridin-7-yl)-5-(trifluoromethyl)tetrahydrothiophene-2-carboxamide] | 80.4%
COc1c(C2CC(C)(C(F)(F)F)SC2C(=O)Nc2cccc(S(C)(=N)=O)c2)ccc(F)c1F (stereo not drawn) [Compound 225, 3-(3,4-difluoro-2-methoxyphenyl)-5-methyl-N-(3-(S-methylsulfonimidoyl)phenyl)-5-(trifluoromethyl)tetrahydrothiophene-2-carboxamide] | 91.2%
COc1c([C@@H]2C[C@](C)(C(F)(F)F)S[C@H]2C(=O)Nc2ccc(C(=O)O)c(O)c2)ccc(F)c1F [Compound 226-A, 4-((2R,3S,5R)-3-(3,4-difluoro-2-methoxyphenyl)-5-methyl-5-(trifluoromethyl)tetrahydrothiophene-2-carboxamido)-2-hydroxybenzoic acid] | 32.2%

Same assay, conditions: concentration of 10 nM, read-out: Inhibition rate %

inhibition at 0.01 µM | Compound
97.7% | COc1c(C2CC(C)(C(F)(F)F)SC2C(=O)Nc2ccc(F)c(S(C)(=N)=O)c2)ccc(F)c1F (stereo not drawn) [Compound 227, 3-(3,4-difluoro-2-methoxyphenyl)-N-(4-fluoro-3-(S-methylsulfonimidoyl)phenyl)-5-methyl-5-(trifluoromethyl)tetrahydrothiophene-2-carboxamide]
83.7% | COc1c([C@@H]2C[C@](C)(C(F)(F)F)S[C@H]2C(=O)Nc2ccc(SC)nc2)ccc(F)c1F [Compound 231-A, (2R,3S,5R)-3-(3,4-difluoro-2-methoxyphenyl)-5-methyl-N-(6-(methylthio)pyridin-3-yl)-5-(trifluoromethyl)tetrahydrothiophene-2-carboxamide]
96.1% | COc1c(C2CC(C)(C(F)(F)F)SC2C(=O)Nc2ccc([S+](C)[O-])nc2)ccc(F)c1F (stereo not drawn) [Compound 232, 3-(3,4-difluoro-2-methoxyphenyl)-5-methyl-N-(6-(methylsulfinyl)pyridin-3-yl)-5-(trifluoromethyl)tetrahydrothiophene-2-carboxamide]
87.4% | COc1c([C@@H]2C[C@](C)(C(F)(F)F)S[C@H]2C(=O)Nc2cccc(S(=O)(=O)N(C)C)c2)ccc(F)c1F [Compound 240-A, (2R,3S,5R)-3-(3,4-difluoro-2-methoxyphenyl)-N-(3-(N,N-dimethylsulfamoyl)phenyl)-5-methyl-5-(trifluoromethyl)tetrahydrothiophene-2-carboxamide]
95.4% | CNS(=O)(=O)c1cccc(NC(=O)[C@@H]2S[C@@](C)(C(F)(F)F)C[C@H]2c2ccc(F)c(F)c2OC)c1 [Compound 241-A, (2R,3S,5R)-3-(3,4-difluoro-2-methoxyphenyl)-5-methyl-N-(3-(N-methylsulfamoyl)phenyl)-5-(trifluoromethyl)tetrahydrothiophene-2-carboxamide]

Further lines, the compound ahead of its results:

Compound | inhibition at 0.01 µM
COc1c([C@@H]2C[C@](C)(C(F)(F)F)S[C@H]2C(=O)Nc2ccnc(OCC(O)CO)c2)ccc(F)c1F (stereo partly drawn) [Compound 191-A, (2R,3S,5R)-3-(3,4-difluoro-2-methoxyphenyl)-N-(2-(2,3-dihydroxypropoxy)pyridin-4-yl)-5-methyl-5-(trifluoromethyl)tetrahydrothiophene-2-carboxamide] | 88.8%
COc1c(C2CC(C)(C(F)(F)F)SC2C(=O)Nc2ccnc(S(C)(=O)=O)c2)ccc(F)c1F (stereo not drawn) [Compound 192, (4-(3-(3,4-difluoro-2-methoxyphenyl)-5-methyl-5-(trifluoromethyl)tetrahydrothiophene-2-carboxamido)-2-methylsulfonyl)pyridine] | 96.4%
COc1c(C2CC(C)(C(F)(F)F)SC2C(=O)Nc2conc2C)ccc(F)c1F (stereo not drawn) [Compound 197, 3-(3,4-difluoro-2-methoxyphenyl)-5-methyl-N-(3-methylisoxazol-4-yl)-5-(trifluoromethyl)tetrahydrothiophene-2-carboxamide] | 91.1%
COc1c(C2CC(C)(C(F)(F)F)SC2C(=O)Nc2cn(C(F)F)nc2C)ccc(F)c1F (stereo not drawn) [Compound 199, (4-(3-(3,4-difluoro-2-methoxyphenyl)-5-methyl-5-(trifluoromethyl)tetrahydrothiophene-2-carboxamido)-1-difluoromethyl-3-methyl)pyrazole] | 89.4%
COc1c(C2CC(C)(C(F)(F)F)SC2C(=O)Nc2ccc3c(c2)COB3O)ccc(F)c1F (stereo not drawn) [Compound 219, 3-(3,4-difluoro-2-methoxyphenyl)-N-(1-hydroxy-1,3-dihydrobenzo[c][1,2]oxaborol-5-yl)-5-methyl-5-(trifluoromethyl)tetrahydrothiophene-2-carboxamide] | 88%
[2H]C1(C(=O)Nc2ccnc(O)c2)SC(C)(C(F)(F)F)CC1c1ccc(F)c(F)c1OC (stereo not drawn) [Compound 222, 3-(3,4-difluoro-2-methoxyphenyl)-N-(2-hydroxypyridin-4-yl)-5-methyl-5-(trifluoromethyl)tetrahydrothiophene-2-d-2-carboxamide] | 97%
